Data published in patent US20070105873A1 (priority 2003, published 2007).

Tests used:
Alternaria solani = test: Persistency against early blight on tomatoes caused by Alternaria solani, protective treatment; format: in vivo; conditions: tomato cultivar Goldene Prinzessin, sprayed with 16 ppm a.i., infected only after seven days, rating after a further 5 days; untreated 90
Method: The active compounds were prepared separately as a stock solution with 0.25% by weight of active compound in acetone or DMSO. 1% by weight of the emulsifier Uniperol® EL (wetting agent having emulsifying and dispersing action based on ethoxylated alkylphenols) was added to this solution. The stock solutions of the active compounds were diluted with water to the stated concentration.
2. Persistency Against Early Blight on Tomatoes Caused by Alternaria solani, Protective Treatment
Leaves of potted plants of the cultivar “Goldene Prinzessin” were sprayed to runoff point with an aqueous suspension having the concentration of active compound stated below.
To test for persistency, the leaves were infected with an aqueous spore suspension of Alternaria solani in a 2% strength biomalt solution having a density of 0.17×10^6 spores/ml only after seven days. The plants were then placed in a water-vapor-saturated chamber at 20-22° C. After a further 5 days, the disease on the untreated, but infected control plants had developed to such an extent that the infection could be determined visually in %.

Phytophthora infestans = format: in vivo; conditions: tomato cultivar Goldene Prinzessin, sprayed with 250 ppm a.i., infected next day, visual rating after 6 days; untreated 80

## C[C@H](Nc1nc(C(N)=O)nc(Cl)c1-c1c(F)cc(F)cc1F)C(F)(F)F [I-5, 4-chloro-6-((S)-2,2,2-trifluoro-1-methylethylamino)-5-(2,4,6-trifluorophenyl)-pyrimidine-2-carboxamide]
Alternaria solani
  infection at 16 ppm of a.i. (% leaf area): 30 % leaf area
Phytophthora infestans
  infection at 250 ppm of a.i. (% leaf area): 0 % leaf area

## CC(C)OC(=O)c1nc(Cl)c(-c2c(F)cc(F)cc2F)c(N[C@@H](C)C(F)(F)F)n1 [V-3, isopropyl 4-chloro-6-((S)-2,2,2-trifluoro-1-methylethylamino)-5-(2,4,6-trifluorophenyl)pyrimidine-2-carboxylate]
Phytophthora infestans
  infection at 250 ppm of a.i. (% leaf area): 5 % leaf area
